According to patent US20260216144A1, “TARGETING MB2 OF THE MYC ONCOGENE AND ITS INTERACTION WITH TRRAP IN CANCER” (priority 2019, published 2026):

Target: MYC:TRRAP interaction (Homo sapiens, UniProt P01106+Q9Y4A5)
Assay: MYC:TRRAP in-cell luminescence complementation assay (NanoBiT; SmB-MYC 1-190 and TRRAP 2033-2283-LgB in HeLa cells)
Format: cell-based
Method: HeLa cells plated on Greiner 96-well TC-rated white plates with clear bottoms were used for the following measurements. Reverse transfections were carried out using LipoD293™ before cells were plated. A bluescript KS' plasmid (Addgene) was used as carrier DNA for transfections, and a pcDNA3.1 EGFP plasmid (ThermoFisher) was used as a fluorescence reporter. White light-reflecting film (USA Scientific) was used to cover the bottom of the plates for luminescence measurements. Black light-absorbing film was used to cover the top of the plates for fluorescence measurements. All measurements were taken on a SpectraMax i3 instrument (Molecular Devices).
Transfections were carried out with increasing DNA amounts (1-100 ng per well) of a CMV-driven LgB plasmid and SmB in excess or vice-versa. Background luminesce for the usable range and the amount of DNA needed for vast excess of LgB or SmB were noted. Next, complementation with vast excess either LgB or SmB was used to determine the expression of each of the indicated MYC and TRRAP constructs for a range of DNA amounts per well: 10-100 ng. An optimal ratio of DNA to equalize the expression of each MYC and TRRAP pair was calculated. Then, signal-to-noise ratios were calculated for the indicated MYC and TRRAP pairs, and the pair with the highest ratio was chosen. Finally, the chosen pair was used to determine the optimal DNA transfection mixture. It was determined to be 6.7 ng of a plasmid with a MYC construct, 60 ng of a plasmid with a TRRAP construct and 33.3 ng of the pcDNA 3.1 EGFP plasmid, for each well in a 96-well plate. Unless otherwise indicated, these were the ratios of DNA transfected for this type of assay.
HeLa cells were transfected as above using LipoD293™ with a mixture of SmB-MYC 1-190, TRRAP 2033-2283-LgB, and EGFP in CMV-driven plasmids at the same optimized ratio described above. Two days post-transfection, the media in each well was replaced with fresh media containing each compound from the NCI's sets at 25 μM. Cells were incubated for 2 h with each compound, and luminescence and fluorescence measurements were recorded for each well. Changes in luminescence were normalized to fluorescence. The following pre-plated compound sets were obtained from the NCI/DTP chemical repository and used for this screen:
These chemical sets were used to discover novel small-molecule inhibitors of the MYC:TRRAP complex. SmB-MYC 1-190, TRRAP 2033-2283-LgB, and EGFP were transfected into HeLa cells. Two days post-transfection, compounds were added to the media at 25 μM and cells were incubated for 2h. Luminescence and fluorescence were recorded for each well containing one of the compounds. Changes in luminescence measurements were normalized to fluorescence measurements.
Afterwards, only molecules that reduced luminescence levels to <50% RLU were considered. This set of 46 compounds were incubated at 10 μM with vector-expressing cells. Luminescence complementation was measured and repeated in triplicate measurements. In addition, HeLa cells expressing LgB and SmB alone were incubated with the same compounds to rule out potentially artificial results due to inhibition of luciferase or its complementation. Molecules that induces any significant reduction in luminescence (<0.6) during this control assay were not considered further. Of 2947 molecules, 17 were chosen for further testing and ordered from the NCI/DTP Open Chemical Repository. FIG. 16 describes these chosen compounds.
Using the luminescence assay above as a readout for the MYC:TRRAP interaction, we used a robotic liquid handler to evaluate 2987 additional compounds (25 μM). All primary hits were counter-screened for any activity against the luciferase enzyme itself and for any effects on the expression of the fusion proteins. We set a threshold of 50% inhibition to consider compounds further. Only 17 out of 2987 passed all these criteria (0.6%). […]

[1] = Table 1, 46 primary hits at 10 uM, HeLa cells, triplicate measurements
[2] = Table 2, compounds with >80% similarity to compound 10 (NSC657456), 10 uM

MYC:TRRAP interaction, sequence (P01106 16-205): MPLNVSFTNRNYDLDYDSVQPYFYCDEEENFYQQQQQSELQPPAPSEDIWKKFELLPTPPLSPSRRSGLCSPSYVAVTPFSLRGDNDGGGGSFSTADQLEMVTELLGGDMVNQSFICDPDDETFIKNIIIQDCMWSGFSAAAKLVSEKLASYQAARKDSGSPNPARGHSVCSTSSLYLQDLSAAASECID
MYC:TRRAP interaction, sequence (Q9Y4A5 2051-2301): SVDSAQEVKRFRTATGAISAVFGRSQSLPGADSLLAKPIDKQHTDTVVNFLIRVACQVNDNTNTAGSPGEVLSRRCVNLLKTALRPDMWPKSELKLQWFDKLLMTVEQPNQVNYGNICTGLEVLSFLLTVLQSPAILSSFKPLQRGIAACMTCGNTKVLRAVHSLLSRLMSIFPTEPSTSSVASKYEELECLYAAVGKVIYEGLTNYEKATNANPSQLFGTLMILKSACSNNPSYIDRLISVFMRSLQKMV

Row | % Inhibition 10 uM [1] [%] | % Inhibition 10 uM [2] [%] | Structure (SMILES)
1 | 90.89 | – | Cc1ccc(NC(=S)C#N)c(C)c1 [Compound 26, 1-cyano-N-(2,4-dimethylphenyl) methanethioamide]
2 | 50.79 | – | CN(C)c1ccc(/C=C/C(=O)c2cc(Cl)ccc2O)cc1 [Compound 35, (E)-1-(5-chloro-2-hydroxyphenyl)-3-[4-(dimethylamino)phenyl]prop-2-en-1-one]
3 | 84.83 | – | Cc1ccc2c(c1)C=C/C(=C\C=C1/C=CC(=O)c3ncccc31)N2C [Compound 37, 5-[2-(1,6-dimethylquinolin-1-ium-2-yl)ethenyl]quinolin-8-ol]
4 | 76.06 | – | CC1(C)CCC2=C(O1)c1ccccc1C(=O)C2=O [Compound 40, 2,2-dimethyl-3,4-dihydrobenzo[h] chromene-5,6-dione]
5 | 93.68 | – | CN(C)c1ccc2c(c1)Sc1cc(N(C)C)ccc1N2C(=O)c1ccccc1 [Compound 44, [3,7-bis(dimethylamino)phenothiazin-10-yl]-phenylmethanone]
6 | – | 104.5 | N=C(S)/N=N/c1c(O)[nH]c2ccccc12 [Compound 101, (2-hydroxy-1H-indol-3-yl)iminothiourea]
7 | – | 123.9 | N=C(N)/N=N/c1c(O)[nH]c2ccccc12 [Compound 104, 1-[(2-hydroxy-1H-indol-3-yl)imino] guanidine]
8 | – | 127.3 | NC(=O)/N=N/c1c(O)n(O)c2ccccc12 [Compound 106, (1,2-dihydroxyindol-3-yl)iminourea]
9 | – | 112.6 | NC(=O)/N=N/c1c(O)[nH]c2ccccc12 [Compound 107, (2-hydroxy-1H-indol-3-yl)iminourea]
10 | – | 86.25 | CN(C)C(=S)/N=N/c1c(O)[nH]c2ccccc12 [Compound 108]
11 | – | 54.48 | O=[N+]([O-])c1ccc(/N=N/c2c(O)[nH]c3ccccc23)cc1 [Compound 109, 3-[(4-nitrophenyl)diazenyl]-1H-indol-2-ol]
12 | – | 94.76 | Cc1ccccc1/N=N/c1c(O)[nH]c2ccccc12 [Compound 1010, 3-[(2-methylphenyl)diazenyl]-1H-indol-2-ol]
13 | – | 83.25 | O=C(/N=N/c1c(O)[nH]c2ccccc12)Nc1ccccc1 [Compound 1013, 1-[(2-hydroxy-1H-indol-3-yl)imino]-3-phenylurea]
14 | – | 107.3 | CCOC(=O)/N=N/c1c(O)[nH]c2ccccc12 [Compound 1014, ethyl N-[(2-hydroxy-1H-indol-3-yl)imino] carbamate]

Second part, the compound before the results:

Row | Structure (SMILES) | % Inhibition 10 uM [1] [%] | % Inhibition 10 uM [2] [%]
15 | CC1=C(CCC(=O)O)c2cc3nc(cc4[nH]c(cc4C)cc4[nH]c(cc1n2)cc4C)C(C)=C3CCC(=O)O [Compound 27, 3-[18-(2-carboxyethyl)-3,8,13,17-tetramethyl-22,23-dihydroporphyrin-2-yl]propanoic acid] | 75.42 | –
16 | O=C1c2ccccc2C(=O)c2sc(Nc3ccc(Cl)cc3)nc21 [Compound 28, 2-(4-chloroanilino)benzo [f][1,3] benzothiazole-4,9-dione] | 66.32 | –
17 | COc1c(OC)c2c3c(nccc3c1OC)-c1cc(=O)c(OC)ccc1-2 [Compound 30] | 68.68 | –
18 | Cc1cc2c(C(C)C)c(O)c(O)c(C=O)c2c(O)c1-c1c(C)cc2c(C(C)C)c(O)c(O)c(C=O)c2c1O [Compound 31, 7-(8-formyl-1,6,7-trihydroxy-3-methyl-5-propan-2-ylnaphthalen-2-yl)-2,3,8-trihydroxy-6-methyl-4-propan-2-ylnaphthalene-1-carbaldehyde] | 68.27 | –
19 | FC(F)(F)c1cccc(-c2nc3nc(Cl)c(Cl)[nH]c-3n2)c1 [Compound 32, 5,6-dichloro-2-[3-(trifluoromethyl)phenyl]-1H-imidazo[4,5-b]pyrazine] | 80.85 | –
20 | CC1=C(C)C(=O)O[C@H]([C@](C)(O)[C@]2(O)CC[C@@]3(O)[C@@H]4C[C@H]5O[C@]56CC=CC(=O)[C@]6(C)[C@H]4CC[C@]23C)C1 [Compound 33, (1S,2R,7S,9R,11R, 12R,15S,16S)-15-[(1S)-1-[(2S)-4,5-dimethyl-6-oxo-2,3-dihydropyran-2-yl]-1-hydroxyethyl]-12,15-dihydroxy-2,16-dimethyl-8-oxapentacyclo [9.7.0.02, 7.07,9.012,16] octadec-4-en-3-one] | 29.74 | –
21 | COc1cccc2c1C(=O)c1c(O)c3c(c(O)c1C2=O)C[C@@](O)(C(C)=O)C[C@@H]3OC1CC(N(Cc2ccccc2)Cc2ccccc2)C(O)C(C)O1.Cl (stereo partly drawn) [Compound 34, (7S,9S)-9-acetyl-7-[4-(dibenzylamino)-5-hydroxy-6-methyloxan-2-yl]oxy-6,9,11-trihydroxy-4-methoxy-8,10-dihydro-7H-tetracene-5,12-dione; hydrochloride] | 78.65 | –
22 | N[C@@H](Cc1ccc2oc3cc(=O)c4ccccc4c-3nc2c1)C(=O)O.O=[N+]([O-])O [Compound 36, (2S)-2-amino-3-(5-oxobenzo[a]pheno-xazin-10-yl)propanoic acid; nitric acid] | 73.39 | –
23 | CC1Oc2cc3c(-c4c(O)cc(O)c5c(O)c6c(cc45)OC(C)C(C)C6=O)c(O)cc(O)c3c(O)c2C(=O)C1C (centres unmarked) [Compound 38] | 76.03 | –
24 | COc1cc2c3c(cc4ccccc4c3c1O)N(C)CC2 [Compound 39] | 73.42 | –
25 | COc1cc(/N=N/c2cccc(S(N)(=O)=O)c2)c2ccccc2c1N [Compound 41, 3-[(4-amino-3-methoxy-naphthalen-1-yl)diazenyl] benzene-sulfonamide] | 78.97 | –
26 | COC(=O)[C@H]1[C@H]2C[C@@H]3c4[nH]c5ccccc5c4CCN3C[C@H]2C[C@@H](OC(=O)c2cc(OC)c(OC)c(OC)c2)[C@@H]1OC [Compound 42, methyl (1R,15S,17R,18R, 19S,20S)-18-methoxy-17-(3,4,5-trimethoxybenzoyl) oxy-1,3,11,12,14,15,16, 17,18,19,20,21-dodecahydro-yohimban-19-carboxylate] | 102.5 | –
27 | COc1c2c(cc3c1C1Oc4c(ccc(O)c4CC=C(C)C)C1CO3)OC(C)(C)C=C2 (centres unmarked) [Compound 45, 21-methoxy-17,17-dimethyl-5-(3-methylbut-2-enyl)-3,12,16-trioxapentacyclo [11.8.0.02,10.04, 9.015,20] henicosa-1(13),4(9),5,7, 14,18, 20-heptaen-6-ol] | 85.82 | –
28 | N=C(/N=N/c1c(O)[nH]c2ccccc12)N[N+](=O)[O-] [Compound 102, 1-[(2-hydroxy-1H-indol-3-yl)imino]-3-nitroguanidine] | – | 100.4
29 | N=C(/N=N/c1c(O)[nH]c2ccccc12)C(=N)/N=N/c1c(O)[nH]c2ccccc12 [Compound 103, 1-N,2-N-bis[(2-hydroxy-1H-indol-3-yl)imino]ethane-diimidamide] | – | 88.83
30 | Oc1[nH]c2ccccc2c1/N=N/C(S)=N/c1ccccc1 [Compound 105, 1-[(2-hydroxy-1H-indol-3-yl)imino]-3-phenylthiourea] | – | 65.25
31 | Oc1[nH]c2ccccc2c1/N=N/c1ccccc1Cl [Compound 1011, 3-[(2-chlorophenyl)diazenyl]-1H-indol-2-ol] | – | 64.75
32 | Oc1[nH]c2ccccc2c1/N=N/c1ccccc1 [Compound 1012, 3-phenyldiazenyl-1H-indol-2-ol] | – | 66.53
